Assays:
[1] = target: T1, human bradykinin 1 receptor (B1R) (Homo sapiens, UniProt P46663); experiment: Functional investigation on the human bradykinin 1 receptor (B1R), Ca2+ FLIPR assay in CHO K1 hB1R cells; type: cell-based; details: B1R antagonism human; test substance 10 μM; Ca2+ FLIPR, CHO K1 hB1R cells
T1 construct: expressed in transfected cells; host or cells: CHO K1 cells
T1 sequence (P46663 1-353): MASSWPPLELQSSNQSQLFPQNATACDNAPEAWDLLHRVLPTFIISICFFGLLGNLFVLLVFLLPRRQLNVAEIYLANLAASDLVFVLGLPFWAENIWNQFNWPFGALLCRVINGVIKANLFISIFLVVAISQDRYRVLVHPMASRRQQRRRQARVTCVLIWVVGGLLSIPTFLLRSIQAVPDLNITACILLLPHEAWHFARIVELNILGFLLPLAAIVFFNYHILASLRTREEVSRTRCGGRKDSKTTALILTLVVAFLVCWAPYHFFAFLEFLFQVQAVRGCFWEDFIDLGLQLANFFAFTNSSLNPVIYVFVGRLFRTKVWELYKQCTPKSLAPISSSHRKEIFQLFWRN
Outline: (§1)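 Peak Ca2+-dependent fluorescence in B1R-transfected CHO K1 cells measures antagonism of an EC80 agonist challenge given 10-20 min after compound. Agonist is Lys-Des-Arg9-bradykinin for human, Des-Arg9-bradykinin for rat receptor.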

[2] = target: T2, bradykinin 1 receptor (B1R) of the rat (Rattus norvegicus, UniProt P97583); experiment: Functional investigation on the rat bradykinin 1 receptor (B1R), Ca2+ FLIPR assay in CHO K1 rB1R cells; type: cell-based; details: B1R antagonism rat; test substance 10 μM; Ca2+ FLIPR, CHO K1 rB1R cells
T2 construct: expressed in transfected cells; host or cells: CHO K1 cells
T2 sequence (P97583 1-337): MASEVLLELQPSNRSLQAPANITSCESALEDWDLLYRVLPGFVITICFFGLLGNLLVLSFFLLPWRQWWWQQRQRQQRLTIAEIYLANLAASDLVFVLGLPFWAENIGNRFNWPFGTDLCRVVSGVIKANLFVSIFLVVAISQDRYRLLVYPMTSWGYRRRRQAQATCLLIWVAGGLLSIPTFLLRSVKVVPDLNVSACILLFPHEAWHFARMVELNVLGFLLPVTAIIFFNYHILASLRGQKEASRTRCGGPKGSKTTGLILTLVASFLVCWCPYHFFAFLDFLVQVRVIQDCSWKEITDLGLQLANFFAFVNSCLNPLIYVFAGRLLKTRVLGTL
Outline: as §1

Compound	B1R Ant. h [10 μM] % Inhibition [1]	B1R Ant. r [10 μM] % Inhibition [2]
COc1cc(C)c(S(=O)(=O)N2CCC(OCC(=O)NCC3CCC(C(c4ccc(F)cc4)N(C)C)CC3)CC2)c(C)c1C (stereo not shown) [Example 527]	57%	68%
COc1cc(C)c(S(=O)(=O)N(C)CCOCC(=O)NCC2CCC(C(CCc3ccccc3)N(C)C)CC2)c(C)c1 (stereo not shown) [Example 525]	99%	93%

From patent US8106055B2, “Substituted amide compounds” (Gruenenthal GmbH, priority 2007, dated 2012)
